Calls of active or inactive are those of the source. No cut-off for these calls is given here.
Columns and labels:
D(2) dopamine receptor = D(2) dopamine receptor (Homo sapiens, UniProt P14416); assay: Inhibition of recombinant D2 receptor (unknown origin)
Cytochrome P450 1A2 = Cytochrome P450 1A2 (Homo sapiens, UniProt P05177); assay: Inhibition of CYP1A2 (unknown origin); format: ADME
Cytochrome P450 2B6 = Cytochrome P450 2B6 (Homo sapiens, UniProt P20813); assay: Inhibition of CYP2B6 (unknown origin); format: ADME
Sequence of Cytochrome P450 2B6 (P20813 whole entry): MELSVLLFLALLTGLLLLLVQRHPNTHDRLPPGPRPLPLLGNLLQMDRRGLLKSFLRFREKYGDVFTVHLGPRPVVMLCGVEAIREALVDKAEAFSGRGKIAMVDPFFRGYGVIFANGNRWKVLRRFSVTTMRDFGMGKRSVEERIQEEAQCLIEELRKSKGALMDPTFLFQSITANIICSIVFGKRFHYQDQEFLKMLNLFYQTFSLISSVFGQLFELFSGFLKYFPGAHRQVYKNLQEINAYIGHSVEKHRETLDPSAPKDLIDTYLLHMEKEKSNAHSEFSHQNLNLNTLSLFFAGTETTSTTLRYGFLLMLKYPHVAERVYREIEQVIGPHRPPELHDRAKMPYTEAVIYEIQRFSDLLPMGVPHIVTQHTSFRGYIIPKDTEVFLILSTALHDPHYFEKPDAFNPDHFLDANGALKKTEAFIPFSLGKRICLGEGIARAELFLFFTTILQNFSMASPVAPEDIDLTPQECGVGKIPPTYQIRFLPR

Cytochrome P450 2C8 = Cytochrome P450 2C8 (Homo sapiens, UniProt P10632); assay: Inhibition of CYP2C8 (unknown origin); format: ADME
Sequence of Cytochrome P450 2C8 (P10632 whole entry): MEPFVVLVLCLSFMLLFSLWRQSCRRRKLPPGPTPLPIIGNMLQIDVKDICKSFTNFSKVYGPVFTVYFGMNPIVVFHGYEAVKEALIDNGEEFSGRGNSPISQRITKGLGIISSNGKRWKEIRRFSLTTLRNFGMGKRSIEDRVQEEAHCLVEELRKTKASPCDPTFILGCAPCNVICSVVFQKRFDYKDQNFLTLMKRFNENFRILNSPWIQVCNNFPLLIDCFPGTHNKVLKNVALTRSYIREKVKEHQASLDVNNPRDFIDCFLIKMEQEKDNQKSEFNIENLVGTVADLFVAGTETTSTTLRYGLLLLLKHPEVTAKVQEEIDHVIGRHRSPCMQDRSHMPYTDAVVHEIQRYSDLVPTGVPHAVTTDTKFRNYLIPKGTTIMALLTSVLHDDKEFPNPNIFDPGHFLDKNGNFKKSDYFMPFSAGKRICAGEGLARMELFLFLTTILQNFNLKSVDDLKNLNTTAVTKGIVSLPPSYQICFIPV

Cytochrome P450 2C9 = Cytochrome P450 2C9 (Homo sapiens, UniProt P11712); assay: Inhibition of CYP2C9 (unknown origin); format: ADME
Sequence of Cytochrome P450 2C9 (P11712 whole entry): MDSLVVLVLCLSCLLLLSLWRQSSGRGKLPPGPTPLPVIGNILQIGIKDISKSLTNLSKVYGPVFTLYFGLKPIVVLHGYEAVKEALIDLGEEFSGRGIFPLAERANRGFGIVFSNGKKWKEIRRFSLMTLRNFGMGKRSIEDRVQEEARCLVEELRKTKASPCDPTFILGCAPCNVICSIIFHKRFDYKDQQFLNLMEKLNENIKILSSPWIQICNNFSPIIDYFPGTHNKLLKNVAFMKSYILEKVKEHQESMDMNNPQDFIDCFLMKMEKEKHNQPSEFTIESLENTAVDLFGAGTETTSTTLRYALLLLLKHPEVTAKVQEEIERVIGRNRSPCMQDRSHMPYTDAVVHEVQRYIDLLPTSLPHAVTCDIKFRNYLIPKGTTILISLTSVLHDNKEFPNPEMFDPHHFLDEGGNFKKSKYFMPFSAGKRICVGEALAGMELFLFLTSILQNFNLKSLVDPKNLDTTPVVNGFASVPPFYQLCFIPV

Cytochrome P450 2C19 = Cytochrome P450 2C19 (Homo sapiens, UniProt P33261); assay: Inhibition of CYP2C19 (unknown origin); format: ADME
Sequence of Cytochrome P450 2C19 (P33261 whole entry): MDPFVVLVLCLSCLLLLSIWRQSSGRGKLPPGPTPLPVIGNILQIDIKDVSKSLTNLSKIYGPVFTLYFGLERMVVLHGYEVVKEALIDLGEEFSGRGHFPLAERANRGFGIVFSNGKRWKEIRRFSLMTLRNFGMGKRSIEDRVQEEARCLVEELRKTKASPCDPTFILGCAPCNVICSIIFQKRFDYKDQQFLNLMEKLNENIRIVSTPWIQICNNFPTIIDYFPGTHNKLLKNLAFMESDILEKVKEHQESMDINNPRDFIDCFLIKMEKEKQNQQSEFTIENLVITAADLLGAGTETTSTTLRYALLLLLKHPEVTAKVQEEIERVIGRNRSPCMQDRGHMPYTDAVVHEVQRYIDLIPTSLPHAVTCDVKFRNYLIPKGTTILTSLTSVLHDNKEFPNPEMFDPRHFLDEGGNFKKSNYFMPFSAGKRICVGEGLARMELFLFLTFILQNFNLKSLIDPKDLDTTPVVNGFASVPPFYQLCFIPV

Cytochrome P450 2D6 = Cytochrome P450 2D6 (Homo sapiens, UniProt P10635); assay: Inhibition of CYP2D6 (unknown origin); format: ADME
Sequence of Cytochrome P450 2D6 (P10635 whole entry): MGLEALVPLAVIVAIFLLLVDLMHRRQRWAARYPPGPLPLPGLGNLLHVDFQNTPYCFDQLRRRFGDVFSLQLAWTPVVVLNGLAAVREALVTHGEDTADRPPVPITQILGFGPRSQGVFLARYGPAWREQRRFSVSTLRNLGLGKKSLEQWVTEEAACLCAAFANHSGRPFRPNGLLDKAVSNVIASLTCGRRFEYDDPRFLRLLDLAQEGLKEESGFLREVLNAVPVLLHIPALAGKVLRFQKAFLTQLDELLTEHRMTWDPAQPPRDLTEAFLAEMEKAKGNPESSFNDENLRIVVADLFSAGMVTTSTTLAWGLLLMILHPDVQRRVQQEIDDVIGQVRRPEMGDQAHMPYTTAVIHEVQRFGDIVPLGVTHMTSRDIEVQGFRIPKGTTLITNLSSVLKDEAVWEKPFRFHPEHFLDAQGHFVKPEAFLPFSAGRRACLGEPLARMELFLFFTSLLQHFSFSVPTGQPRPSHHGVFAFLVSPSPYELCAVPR

Cytochrome P450 3A4 = Cytochrome P450 3A4 (Homo sapiens, UniProt P08684); assay: Inhibition of CYP3A4 (unknown origin); format: ADME
Sequence of Cytochrome P450 3A4 (P08684 whole entry): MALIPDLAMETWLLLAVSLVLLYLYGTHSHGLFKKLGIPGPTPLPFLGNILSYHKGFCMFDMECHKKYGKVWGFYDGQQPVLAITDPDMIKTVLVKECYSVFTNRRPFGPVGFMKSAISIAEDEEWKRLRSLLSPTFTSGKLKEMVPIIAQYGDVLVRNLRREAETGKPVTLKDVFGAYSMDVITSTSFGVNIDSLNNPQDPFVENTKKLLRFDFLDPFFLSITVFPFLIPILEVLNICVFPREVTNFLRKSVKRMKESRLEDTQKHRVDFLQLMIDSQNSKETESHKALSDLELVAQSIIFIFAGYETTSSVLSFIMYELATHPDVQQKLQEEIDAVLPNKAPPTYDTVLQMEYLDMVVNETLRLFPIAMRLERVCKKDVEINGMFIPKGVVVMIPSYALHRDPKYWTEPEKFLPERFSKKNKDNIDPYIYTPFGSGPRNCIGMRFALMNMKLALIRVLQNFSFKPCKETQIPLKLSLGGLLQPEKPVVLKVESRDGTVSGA

Cytochrome P450 3A5 = Cytochrome P450 3A5 (Homo sapiens, UniProt P20815); assay: Inhibition of CYP3A5 (unknown origin); format: ADME
Sequence of Cytochrome P450 3A5 (P20815 whole entry): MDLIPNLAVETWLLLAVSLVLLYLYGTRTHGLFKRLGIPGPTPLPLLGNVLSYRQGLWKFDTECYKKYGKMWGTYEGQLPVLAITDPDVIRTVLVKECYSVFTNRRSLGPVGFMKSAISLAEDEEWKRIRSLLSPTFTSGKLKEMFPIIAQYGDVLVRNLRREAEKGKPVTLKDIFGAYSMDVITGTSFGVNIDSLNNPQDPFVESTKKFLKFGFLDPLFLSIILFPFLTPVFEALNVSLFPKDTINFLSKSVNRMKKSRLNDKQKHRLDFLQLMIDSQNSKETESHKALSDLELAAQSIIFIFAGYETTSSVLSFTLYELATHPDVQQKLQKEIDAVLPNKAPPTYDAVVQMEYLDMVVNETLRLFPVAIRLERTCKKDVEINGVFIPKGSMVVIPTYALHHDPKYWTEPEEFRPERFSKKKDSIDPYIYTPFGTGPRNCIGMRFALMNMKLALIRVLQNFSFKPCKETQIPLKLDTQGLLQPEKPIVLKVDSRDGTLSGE

[1] = AUC(0 to 24 hrs) in beagle dog at 1 mg/kg, iv; format: ADME, organism-based, Canis lupus familiaris; parameters: dose 1 mg/kg, time < 24 hr, route intravenous; conditions: in vivo
[2] = Permeability from apical to basolateral side in MDCK2-MDR1 cells; format: ADME, cell-based, Canis lupus familiaris, MDCK-II; conditions: dog, MDCK-MDR1
[3] = Elimination half life in beagle dog at 1 mg/kg, iv; format: ADME, organism-based, Canis lupus familiaris; conditions: in vivo, read-out: beta t1/2 (converted)
[4] = Clearance in beagle dog at 1 mg/kg, iv; format: ADME, organism-based, Canis lupus familiaris; conditions: in vivo
[5] = Volume of distribution at steady state in beagle dog at 1 mg/kg, iv; format: ADME, organism-based, Canis lupus familiaris; conditions: in vivo, read-out: Vdss
[6] = AUC(0 to 24 hrs) in beagle dog at 2 mg/kg, po; format: ADME, organism-based, Canis lupus familiaris; parameters: dose 2 mg/kg, time < 24 hr, route oral; conditions: in vivo
[7] = Elimination half life in beagle dog at 2 mg/kg, po; format: ADME, organism-based, Canis lupus familiaris; conditions: in vivo, read-out: beta t1/2 (converted)
[8] = Oral bioavailability in beagle dog at 2 mg/kg; format: ADME, organism-based, Canis lupus familiaris; conditions: in vivo
[9] = Tmax in beagle dog at 2 mg/kg, po; format: ADME, organism-based, Canis lupus familiaris; conditions: in vivo
[10] = Cmax in beagle dog at 2 mg/kg, po; format: ADME, organism-based, Canis lupus familiaris; parameters: dose 2 mg/kg, route oral; conditions: in vivo
[11] = Ratio of fraction unbound in brain to plasma of cynomolgus monkey at 150 MBq, iv by positron emission tomography; format: ADME, organism-based, Macaca fascicularis
[12] = Ratio of fraction unbound in brain to plasma of cynomolgus monkey at 155 MBq, iv by positron emission tomography; format: ADME, organism-based, Macaca fascicularis
PC-9 [13] = assay: Antitumor activity against human PC9 cells expressing EGFR exon19 deletion mutant xenografted in mouse measured after 4 weeks; format: functional, cell-based
[14] = Antitumor activity against human PC9 cells expressing EGFR exon19 deletion mutant xenografted in mouse assessed as tumor growth inhibition at 7.5 mg/kg, qd measured after 4 weeks; format: functional; conditions: PC-9, 672 h
PC-9 [15] = assay: Antitumor activity against human PC9 cells expressing EGFR exon19 deletion mutant xenografted in mouse assessed as tumor regression at 15 mg/kg, qd measured after 4 weeks; format: functional, organism-based
Mus musculus [16] = assay: Toxicity in PC9 cells expressing EGFR exon19 deletion mutant xenografted mouse assessed as loss of body weight at 7.5 mg/kg, qd; format: organism-based, PC-9; conditions: in vivo
Mus musculus [17] = assay: Toxicity in PC9 cells expressing EGFR exon19 deletion mutant xenografted mouse assessed as loss of body weight at 15 mg/kg, qd; format: organism-based, PC-9; conditions: in vivo
PC-9 [18] = assay: Antitumor activity against human PC9 cells expressing EGFR exon19 deletion mutant xenografted in mouse assessed as decrease in tumor area in brain at 7.5 mg/kg, qd; format: functional, organism-based
PC-9 [19] = assay: Antitumor activity against human PC9 cells expressing EGFR exon19 deletion mutant xenografted in mouse assessed as decrease in tumor area in brain at 15 mg/kg, qd; format: functional, organism-based
PC-9 [20] = assay: Antitumor activity against human PC9 cells expressing EGFR exon19 deletion mutant xenografted in mouse assessed as modulation of pEGFR expression in brain at 15 mg/kg administered as single dose measured after 1 hr by immunohistochemical analysis; format: functional, organism-based

Sequence of D(2) dopamine receptor (P14416 whole entry): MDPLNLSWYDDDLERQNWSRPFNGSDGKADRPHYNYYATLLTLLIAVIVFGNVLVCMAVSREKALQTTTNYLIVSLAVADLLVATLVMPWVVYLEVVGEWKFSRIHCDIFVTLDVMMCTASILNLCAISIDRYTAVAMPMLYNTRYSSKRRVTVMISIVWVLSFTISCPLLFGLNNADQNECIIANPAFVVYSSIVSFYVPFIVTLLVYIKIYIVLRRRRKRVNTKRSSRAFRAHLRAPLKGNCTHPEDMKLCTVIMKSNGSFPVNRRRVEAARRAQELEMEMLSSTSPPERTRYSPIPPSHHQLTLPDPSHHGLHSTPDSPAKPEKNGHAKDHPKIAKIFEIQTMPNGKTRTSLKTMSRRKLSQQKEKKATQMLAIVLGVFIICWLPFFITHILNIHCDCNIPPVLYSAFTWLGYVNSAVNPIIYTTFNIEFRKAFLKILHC
Sequence of Cytochrome P450 1A2 (P05177 whole entry): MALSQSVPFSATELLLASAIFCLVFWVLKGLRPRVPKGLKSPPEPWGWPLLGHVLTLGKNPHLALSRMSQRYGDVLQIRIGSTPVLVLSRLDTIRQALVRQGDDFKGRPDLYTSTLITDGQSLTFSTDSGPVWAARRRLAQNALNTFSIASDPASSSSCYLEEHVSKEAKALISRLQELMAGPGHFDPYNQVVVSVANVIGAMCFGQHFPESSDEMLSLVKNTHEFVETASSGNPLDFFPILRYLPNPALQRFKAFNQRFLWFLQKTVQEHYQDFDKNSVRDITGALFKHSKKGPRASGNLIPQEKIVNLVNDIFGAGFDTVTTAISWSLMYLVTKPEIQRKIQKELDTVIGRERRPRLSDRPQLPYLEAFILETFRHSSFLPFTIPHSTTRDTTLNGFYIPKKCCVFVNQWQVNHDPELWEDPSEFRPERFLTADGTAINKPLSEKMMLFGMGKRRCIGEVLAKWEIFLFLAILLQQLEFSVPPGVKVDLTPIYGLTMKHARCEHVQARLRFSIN

## COc1cc2ncnc(Nc3cccc(Cl)c3F)c2cc1OC(=O)N1CCN(C)C[C@H]1C [AZD-3759]
D(2) dopamine receptor
  IC50: 797 nM
Cytochrome P450 1A2
  IC50: > 50 µM
Cytochrome P450 2B6
  IC50: > 50 µM
Cytochrome P450 2C8
  IC50: > 50 µM
Cytochrome P450 2C9
  IC50: > 50 µM
Cytochrome P450 2C19
  IC50: > 50 µM
Cytochrome P450 2D6
  IC50: > 50 µM
Cytochrome P450 3A4
  IC50: > 50 µM
Cytochrome P450 3A5
  IC50: > 50 µM
[1]
  AUC(0-t) at 24 h: 2.56 µM·h
[2]
  Papp A→B: 36 ×10⁻⁶ cm/s
[3]
  half-life: 372 min
[4]
  clearance: 14 mL/min/kg
[5]
  Vd: 6.4 L/kg
[6]
  AUC(0-t) at 24 h: 4.62 µM·h
[7]
  half-life: 330 min
[8]
  bioavailability: 90.2%
[9]
  Tmax: 30 min
[10]
  Cmax: 698 nM
[11]
  BPR: 0.5
[12]
  BPR: 0.53
PC-9 [13]
  Activity: Dose-dependent effect
[14]
  inhibition in vivo at 7.5 mg/kg: 78%
PC-9 [15]
  Activity: Active
Mus musculus [16]
  Activity: < 20%
Mus musculus [17]
  Activity: < 20%
PC-9 [18]
  inhibition: Active
PC-9 [19]
  inhibition: Active
PC-9 [20]
  Activity: Active
